According to ChEMBL document CHEMBL6127116, “Discovery of Potent and Selective Blockers Targeting the Epilepsy-Associated KNa1.1 Channel” (J Med Chem, 2024):

How the values were obtained:
[1] = Inhibition of KNa 1.1 (unknown origin); design: species or system Homo sapiens
HEK293 = assay: Cytotoxicity against HEK293 cells assessed as reduction in cell viability at 10 uM by CCK8 method relative to control; type: toxicity, cell-based; conditions: human, hek293, 10 µM
[2] = molecular target: Sodium channel protein type 5 subunit alpha (Homo sapiens, UniProt Q14524); assay: Inhibition of Nav1.5 (unknown origin) expressed in HEK293T cells at 10 uM by patch-clamp electrophysiology method; type: cell-based
Sodium channel protein type 5 subunit alpha, sequence (Q14524 whole entry): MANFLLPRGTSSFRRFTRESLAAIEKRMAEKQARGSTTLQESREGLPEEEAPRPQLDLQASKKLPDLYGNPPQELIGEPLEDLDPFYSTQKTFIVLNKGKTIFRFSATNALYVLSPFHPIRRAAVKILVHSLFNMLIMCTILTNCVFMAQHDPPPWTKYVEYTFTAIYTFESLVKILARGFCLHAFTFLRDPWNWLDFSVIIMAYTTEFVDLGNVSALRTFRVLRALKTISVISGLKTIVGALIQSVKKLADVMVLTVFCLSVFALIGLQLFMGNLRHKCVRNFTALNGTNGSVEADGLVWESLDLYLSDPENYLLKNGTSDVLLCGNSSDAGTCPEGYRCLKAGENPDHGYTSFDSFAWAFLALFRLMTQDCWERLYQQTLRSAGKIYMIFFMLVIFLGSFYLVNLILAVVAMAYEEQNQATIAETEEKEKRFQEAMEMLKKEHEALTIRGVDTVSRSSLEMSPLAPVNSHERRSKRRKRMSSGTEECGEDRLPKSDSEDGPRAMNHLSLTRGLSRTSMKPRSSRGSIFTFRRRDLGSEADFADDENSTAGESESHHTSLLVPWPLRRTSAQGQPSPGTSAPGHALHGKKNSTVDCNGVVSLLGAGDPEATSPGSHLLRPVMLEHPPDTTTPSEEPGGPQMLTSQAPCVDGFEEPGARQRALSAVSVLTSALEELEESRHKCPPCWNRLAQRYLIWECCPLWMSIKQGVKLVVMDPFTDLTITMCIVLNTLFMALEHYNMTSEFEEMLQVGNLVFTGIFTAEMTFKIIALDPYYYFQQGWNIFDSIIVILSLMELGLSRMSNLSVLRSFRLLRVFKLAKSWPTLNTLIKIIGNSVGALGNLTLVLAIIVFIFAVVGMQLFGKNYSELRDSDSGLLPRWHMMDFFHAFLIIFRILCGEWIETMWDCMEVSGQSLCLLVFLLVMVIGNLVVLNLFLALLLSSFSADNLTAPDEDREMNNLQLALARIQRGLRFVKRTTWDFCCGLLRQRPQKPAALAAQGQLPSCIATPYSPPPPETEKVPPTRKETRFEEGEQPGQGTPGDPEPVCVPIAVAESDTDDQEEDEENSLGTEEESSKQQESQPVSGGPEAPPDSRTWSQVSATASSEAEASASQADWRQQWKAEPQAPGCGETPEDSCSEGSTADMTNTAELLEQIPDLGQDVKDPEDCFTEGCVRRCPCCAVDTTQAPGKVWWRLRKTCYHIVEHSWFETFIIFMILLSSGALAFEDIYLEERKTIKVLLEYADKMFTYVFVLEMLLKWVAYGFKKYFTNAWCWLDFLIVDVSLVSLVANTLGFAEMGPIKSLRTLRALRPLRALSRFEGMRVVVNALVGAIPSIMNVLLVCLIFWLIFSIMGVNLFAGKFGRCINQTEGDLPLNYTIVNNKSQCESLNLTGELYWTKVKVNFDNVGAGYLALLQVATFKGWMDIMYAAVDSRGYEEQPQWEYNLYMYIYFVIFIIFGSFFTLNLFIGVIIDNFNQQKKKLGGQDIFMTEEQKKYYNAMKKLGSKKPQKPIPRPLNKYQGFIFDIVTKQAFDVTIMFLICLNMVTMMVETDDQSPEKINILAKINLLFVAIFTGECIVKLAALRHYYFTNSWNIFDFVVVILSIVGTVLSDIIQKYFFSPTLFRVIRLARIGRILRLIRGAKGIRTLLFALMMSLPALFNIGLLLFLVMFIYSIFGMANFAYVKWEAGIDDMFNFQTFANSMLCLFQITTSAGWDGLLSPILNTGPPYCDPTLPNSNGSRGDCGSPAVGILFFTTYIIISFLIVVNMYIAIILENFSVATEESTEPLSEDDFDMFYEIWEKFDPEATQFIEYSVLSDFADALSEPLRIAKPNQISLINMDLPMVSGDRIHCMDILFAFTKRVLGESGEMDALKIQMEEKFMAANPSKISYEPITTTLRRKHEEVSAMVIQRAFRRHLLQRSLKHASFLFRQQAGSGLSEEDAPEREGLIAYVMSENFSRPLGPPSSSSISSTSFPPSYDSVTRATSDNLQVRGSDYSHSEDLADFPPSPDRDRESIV

[3] = Tmax in male ICR mouse at 10 mg/kg, iv administered as single dose measured upto 24 hrs by HPLC analysis; type: ADME, organism-based; conditions: in vivo
[4] = Drug concentration in male ICR mouse plasma at 50 mg/kg, po measured after 0.5 hrs by LC-MS/MS analysis; type: ADME, organism-based
[5] = Oral bioavailability in male ICR mouse at 50 mg/kg administered as single dose measured upto 24 hrs by HPLC analysis; type: ADME, organism-based; conditions: in vivo
[6] = Cmax in male ICR mouse at 10 mg/kg, iv administered as single dose measured upto 24 hrs by HPLC analysis; type: ADME, organism-based; conditions: in vivo
[7] = molecular target: T1, Voltage-gated inwardly rectifying potassium channel KCNH2 (Homo sapiens, UniProt Q12809); assay: Inhibition of human ERG expressed in Xenopus laevis oocytes at 10 uM by two-electrode voltage clamp method; type: toxicity, cell-based; conditions: oocyte
T1 sequence (Q12809 whole entry): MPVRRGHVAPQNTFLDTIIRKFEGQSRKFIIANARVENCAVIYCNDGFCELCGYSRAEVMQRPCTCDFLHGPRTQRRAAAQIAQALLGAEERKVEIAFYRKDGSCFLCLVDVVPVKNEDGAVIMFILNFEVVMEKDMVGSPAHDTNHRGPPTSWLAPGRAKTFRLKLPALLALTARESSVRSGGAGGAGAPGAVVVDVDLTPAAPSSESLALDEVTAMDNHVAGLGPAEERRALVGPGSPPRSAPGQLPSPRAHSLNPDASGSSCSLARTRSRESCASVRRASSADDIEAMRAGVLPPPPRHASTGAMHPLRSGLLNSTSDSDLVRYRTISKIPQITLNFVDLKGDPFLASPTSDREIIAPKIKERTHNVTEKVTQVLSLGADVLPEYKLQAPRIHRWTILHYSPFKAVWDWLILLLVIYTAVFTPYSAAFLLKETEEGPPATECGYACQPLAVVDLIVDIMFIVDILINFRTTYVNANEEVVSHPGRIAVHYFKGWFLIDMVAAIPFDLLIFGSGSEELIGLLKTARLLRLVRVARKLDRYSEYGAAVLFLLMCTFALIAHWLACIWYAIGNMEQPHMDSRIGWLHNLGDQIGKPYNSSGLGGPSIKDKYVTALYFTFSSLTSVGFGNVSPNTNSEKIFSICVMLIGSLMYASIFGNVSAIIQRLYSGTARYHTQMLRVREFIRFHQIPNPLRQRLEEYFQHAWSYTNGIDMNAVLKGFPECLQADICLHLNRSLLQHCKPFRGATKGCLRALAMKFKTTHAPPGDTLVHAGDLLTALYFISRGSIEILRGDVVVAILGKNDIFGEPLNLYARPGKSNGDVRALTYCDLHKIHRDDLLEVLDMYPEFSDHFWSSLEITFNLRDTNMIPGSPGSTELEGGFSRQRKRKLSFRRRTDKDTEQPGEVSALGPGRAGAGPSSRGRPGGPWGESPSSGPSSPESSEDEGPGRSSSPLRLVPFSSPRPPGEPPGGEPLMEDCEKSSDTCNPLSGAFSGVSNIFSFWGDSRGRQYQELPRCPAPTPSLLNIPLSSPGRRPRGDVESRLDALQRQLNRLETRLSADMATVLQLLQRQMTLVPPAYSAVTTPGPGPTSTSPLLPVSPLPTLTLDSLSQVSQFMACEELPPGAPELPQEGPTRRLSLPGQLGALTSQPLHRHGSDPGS

[8] = Half life in male ICR mouse at 50 mg/kg, po administered as single dose measured upto 24 hrs by HPLC analysis; type: ADME, organism-based; conditions: in vivo
[9] = Inhibition of human KNa1.1 Y796H mutant expressed in HEK293T cells by patch-clamp electrophysiology method; type: cell-based; conditions: HEK-293T
[10] = Half life in male ICR mouse at 10 mg/kg, iv administered as single dose measured upto 24 hrs by HPLC analysis; type: ADME, organism-based; conditions: in vivo
[11] = Drug concentration in male ICR mouse brain at 50 mg/kg, po measured after 0.5 hrs by LC-MS/MS analysis; type: ADME, organism-based; conditions: read-out: Ct
[12] = AUC (0 to t) in male ICR mouse at 10 mg/kg, iv administered as single dose measured upto 24 hrs by HPLC analysis; type: ADME, organism-based; conditions: in vivo
[13] = Drug concentration in male ICR mouse brain at 10 mg/kg, iv measured after 2 hrs by LC-MS/MS analysis; type: ADME, organism-based; conditions: read-out: Ct
[14] = Cmax in male ICR mouse at 50 mg/kg, po administered as single dose measured upto 24 hrs by HPLC analysis; type: ADME, organism-based; conditions: in vivo
[15] = Ratio of drug concentration in male ICR mouse brain to plasma at 10 mg/kg, iv measured after 0.5 hrs by LC-MS/MS analysis; type: ADME, organism-based; conditions: brain and plasma, read-out: BPR
[16] = Inhibition of KNa1.1 F327I mutant (unknown origin) expressed in HEK293T cells by patch-clamp electrophysiology method; type: cell-based; conditions: Homo sapiens, HEK-293T
[17] = molecular target: T1, Voltage-gated inwardly rectifying potassium channel KCNH2; assay: Inhibition of human ERG expressed in Xenopus laevis oocytes by two-electrode voltage clamp method; type: toxicity, cell-based, Oocyte
[18] = molecular target: T2, Potassium channel subfamily T member 1 (Homo sapiens, UniProt Q5JUK3); assay: Inhibition of wild type human KNa1.1 expressed in HEK293T cells by patch-clamp electrophysiology method; type: cell-based
T2 sequence (Q5JUK3 whole entry): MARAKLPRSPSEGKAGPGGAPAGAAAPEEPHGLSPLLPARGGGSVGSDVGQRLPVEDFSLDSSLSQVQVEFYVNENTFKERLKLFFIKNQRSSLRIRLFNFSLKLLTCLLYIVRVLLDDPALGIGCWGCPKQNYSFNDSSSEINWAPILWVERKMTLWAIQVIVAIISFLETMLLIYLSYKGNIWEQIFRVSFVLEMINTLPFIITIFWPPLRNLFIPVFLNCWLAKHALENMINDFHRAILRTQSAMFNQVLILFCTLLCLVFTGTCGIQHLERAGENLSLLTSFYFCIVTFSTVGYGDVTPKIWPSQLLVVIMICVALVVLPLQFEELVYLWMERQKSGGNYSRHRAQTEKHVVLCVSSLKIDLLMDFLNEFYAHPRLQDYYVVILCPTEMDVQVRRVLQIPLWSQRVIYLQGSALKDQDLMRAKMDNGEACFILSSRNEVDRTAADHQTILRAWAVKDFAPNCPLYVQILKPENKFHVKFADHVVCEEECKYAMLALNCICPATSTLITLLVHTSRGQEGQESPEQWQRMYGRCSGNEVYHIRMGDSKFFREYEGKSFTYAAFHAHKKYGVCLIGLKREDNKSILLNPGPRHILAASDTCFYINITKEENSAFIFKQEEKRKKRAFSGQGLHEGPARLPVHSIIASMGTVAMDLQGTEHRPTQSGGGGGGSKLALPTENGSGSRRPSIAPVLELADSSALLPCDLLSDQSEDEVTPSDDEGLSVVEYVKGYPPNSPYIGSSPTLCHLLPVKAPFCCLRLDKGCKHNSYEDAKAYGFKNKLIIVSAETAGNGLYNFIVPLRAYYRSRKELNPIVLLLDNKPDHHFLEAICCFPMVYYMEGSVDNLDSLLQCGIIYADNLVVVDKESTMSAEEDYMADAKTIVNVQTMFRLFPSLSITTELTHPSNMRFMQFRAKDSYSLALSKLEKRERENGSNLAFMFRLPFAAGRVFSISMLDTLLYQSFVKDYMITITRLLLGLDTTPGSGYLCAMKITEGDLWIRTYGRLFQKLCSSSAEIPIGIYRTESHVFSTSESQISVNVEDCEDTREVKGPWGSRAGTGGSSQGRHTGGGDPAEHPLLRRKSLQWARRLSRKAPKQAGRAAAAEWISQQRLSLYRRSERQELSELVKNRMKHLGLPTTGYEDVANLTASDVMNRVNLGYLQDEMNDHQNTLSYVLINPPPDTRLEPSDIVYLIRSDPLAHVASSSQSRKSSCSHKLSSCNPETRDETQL

[19] = Tmax in male ICR mouse at 50 mg/kg, po administered as single dose measured upto 24 hrs by HPLC analysis; type: ADME, organism-based; conditions: in vivo
[20] = Drug concentration in male ICR mouse plasma at 50 mg/kg, po measured after 2 hrs by LC-MS/MS analysis; type: ADME, organism-based
[21] = Drug concentration in male ICR mouse plasma at 10 mg/kg, iv measured after 2 hrs by LC-MS/MS analysis; type: ADME, organism-based
[22] = Drug concentration in male ICR mouse brain at 50 mg/kg, po measured after 2 hrs by LC-MS/MS analysis; type: ADME, organism-based; conditions: read-out: Ct
[23] = Drug concentration in male ICR mouse brain at 10 mg/kg, iv measured after 0.5 hrs by LC-MS/MS analysis; type: ADME, organism-based; conditions: read-out: Ct
[24] = Ratio of drug concentration in male ICR mouse brain to plasma at 50 mg/kg, po measured after 2 hrs by LC-MS/MS analysis; type: ADME, organism-based; conditions: brain and plasma, read-out: BPR
[25] = Volume of distribution at steady state in male ICR mouse at 10 mg/kg, iv administered as single dose measured upto 24 hrs by HPLC analysis; type: ADME, organism-based; conditions: in vivo, read-out: Vdss
[26] = Ratio of drug concentration in male ICR mouse brain to plasma at 10 mg/kg, iv measured after 2 hrs by LC-MS/MS analysis; type: ADME, organism-based; conditions: brain and plasma, read-out: BPR
[27] = Drug concentration in male ICR mouse plasma at 10 mg/kg, iv measured after 0.5 hrs by LC-MS/MS analysis; type: ADME, organism-based
[28] = MRT (0 to t) in male ICR mouse at 10 mg/kg, iv administered as single dose measured upto 24 hrs by HPLC analysis; type: ADME, organism-based; conditions: in vivo
[29] = AUC (0 to t) in male ICR mouse at 50 mg/kg, po administered as single dose measured upto 24 hrs by HPLC analysis; type: ADME, organism-based; conditions: in vivo
[30] = MRT (0 to t) in male ICR mouse at 50 mg/kg, po administered as single dose measured upto 24 hrs by HPLC analysis; type: ADME, organism-based; conditions: in vivo
[31] = Ratio of drug concentration in male ICR mouse brain to plasma at 50 mg/kg, po measured after 0.5 hrs by LC-MS/MS analysis; type: ADME, organism-based; conditions: brain and plasma, read-out: BPR
[32] = Clearance in male ICR mouse at 10 mg/kg, iv administered as single dose measured upto 24 hrs by HPLC analysis; type: ADME, organism-based; conditions: in vivo
[33] = Inhibition of human wild type SLACK expressed in CHO cells by Whole-cell automated patch clamp assay; type: cell-based

**Q.** With C=C[C@H]1CN2CC[C@H]1C[C@@H]2[C@@H](O)c1ccnc2ccc(OC)cc12 [QUINIDINE] as the molecule, how does the IC50 [1] read?
**A.** 89.6 µM

**Q.** What about the Activity (HEK293) of the same molecule?
**A.** 103.53%

**Q.** For CN(C)CCCCNCc1c(OCc2ccc(F)cc2)ccc2ccccc12, which “inhibition (INH)” value [2] is on record?
**A.** Not Active

**Q.** Which Tmax [3] does the source give for c1ccc(COc2ccc3ccccc3c2CCC2CCNCC2)cc1 here?
**A.** 4.8 min

**Q.** And the concentration at 0.5 h [4]?
**A.** 1290 ng/mL

**Q.** And the bioavailability [5]?
**A.** 32.8%

**Q.** What about the Cmax [6] of the same molecule?
**A.** 2180 ng/mL

**Q.** And the “inhibition (INH)” value [7]?
**A.** Not Active

**Q.** What about the half-life [8] of the same molecule?
**A.** 3.11 h

**Q.** What about the IC50 [9] of the same molecule?
**A.** 0.4 µM

**Q.** What about the half-life [10] of the same molecule?
**A.** 2.46 h

**Q.** What about the concentration at 0.5 h [11] of the same molecule?
**A.** 604 ng/mL

**Q.** What about the AUC(0-t) at 24 h [12] of the same molecule?
**A.** 4550 ng·h/mL

**Q.** What about the concentration at 2 h [13] of the same molecule?
**A.** 3330 ng/mL

**Q.** And the Cmax [14]?
**A.** 1290 ng/mL

**Q.** What about the Kp at 0.5 h [15] of the same molecule?
**A.** 7.8

**Q.** What about the IC50 [16] of the same molecule?
**A.** 24.2 µM

**Q.** And the IC50 [17]?
**A.** 90.2 µM

**Q.** What about the IC50 [18] of the same molecule?
**A.** 3.43 µM

**Q.** What about the Tmax [19] of the same molecule?
**A.** 0.5 h

**Q.** What about the concentration at 2 h [20] of the same molecule?
**A.** 893 ng/mL

**Q.** And the concentration at 2 h [21]?
**A.** 605 ng/mL

**Q.** And the concentration at 2 h [22]?
**A.** 1200 ng/mL

**Q.** And the concentration at 0.5 h [23]?
**A.** 8010 ng/mL

**Q.** What about the Kp at 2 h [24] of the same molecule?
**A.** 1.34

**Q.** What about the Vd [25] of the same molecule?
**A.** 6.91 L/kg

**Q.** And the Kp at 2 h [26]?
**A.** 5.51

**Q.** And the concentration at 0.5 h [27]?
**A.** 1030 ng/mL

**Q.** And the MRT last at 24 h [28]?
**A.** 3.12 h

**Q.** What about the AUC(0-t) at 24 h [29] of the same molecule?
**A.** 7450 ng·h/mL

**Q.** What about the “inhibition (INH)” value [2] of the same molecule?
**A.** Not Active

**Q.** What about the MRT last at 24 h [30] of the same molecule?
**A.** 4.96 h

**Q.** And the Activity (HEK293)?
**A.** 99.63%

**Q.** What about the Kp at 0.5 h [31] of the same molecule?
**A.** 0.47

**Q.** What about the clearance [32] of the same molecule?
**A.** 36.6 mL/min/kg

**Q.** Which “inhibition (INH)” value [2] does the source give for CCn1c2c(c3ccccc31)CN(CCCCNCc1c(OCc3ccc(F)cc3)ccc3ccccc13)CC2 here?
**A.** Not Active

**Q.** For Cc1ccc2cccc(S(=O)(=O)N3CC(c4nc(-c5ccc(F)cc5)no4)C3)c2n1, which IC50 [33] is on record?
**A.** 0.32 µM
